Test results: ChEMBL document CHEMBL2203152, “Systematic in vivo screening of a series of 1-propyl-4-arylpiperidines against dopaminergic and serotonergic properties in rat brain: a scaffold-jumping approach” (J Med Chem, 2012)
Activity calls are given as the source filed them. No cut-off for these calls is given here.

Assays:
[1] = tested on: Rattus norvegicus; test: Decrease in 5-HIAA level in Sprague-Dawley rat striatum at 100 umol/kg, sc by HPLC analysis relative to saline-treated control; format: functional; parameters: scale not given: the % may be the effect or the level left
[2] = tested on: Rattus norvegicus; test: Increase in DOPAC level in sc dosed Sprague-Dawley rat striatum by HPLC analysis; format: functional
[3] = tested on: Rattus norvegicus; test: Increase in DOPAC level in Sprague-Dawley rat striatum at 100 umol/kg, sc by HPLC analysis relative to saline-treated control; format: functional
[4] = tested on: Rattus norvegicus; test: Reduction in spontaneous locomotor activity in Sprague-Dawley rat at 100 umol/kg, sc measured after 15 to 60 mins relative to saline-treated control; format: functional; parameters: scale not given: the % may be the effect or the level left
[5] = biological target: T1, 5-hydroxytryptamine receptor 1A (Homo sapiens) (UniProt P08908); test: Displacement of [3H]8- OH-DPAT from human 5-HT1A at 1 uM by CEREP assay
T1 sequence (whole entry): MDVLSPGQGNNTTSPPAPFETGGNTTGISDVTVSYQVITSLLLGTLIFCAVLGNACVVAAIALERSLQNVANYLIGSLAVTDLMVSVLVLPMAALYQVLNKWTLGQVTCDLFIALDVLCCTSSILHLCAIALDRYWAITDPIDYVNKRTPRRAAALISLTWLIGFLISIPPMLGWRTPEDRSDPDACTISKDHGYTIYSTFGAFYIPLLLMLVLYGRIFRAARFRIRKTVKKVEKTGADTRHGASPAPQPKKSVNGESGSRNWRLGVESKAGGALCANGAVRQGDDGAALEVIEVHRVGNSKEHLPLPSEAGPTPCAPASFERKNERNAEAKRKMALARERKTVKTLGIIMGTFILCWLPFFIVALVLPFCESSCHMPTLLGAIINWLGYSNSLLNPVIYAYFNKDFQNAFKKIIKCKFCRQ

[6] = biological target: T2, D(4) dopamine receptor (Homo sapiens) (UniProt P21917); test: Displacement of [3H]methylspiperone from human dopamine D4 receptor at 1 uM by CEREP assay
T2 sequence (whole entry): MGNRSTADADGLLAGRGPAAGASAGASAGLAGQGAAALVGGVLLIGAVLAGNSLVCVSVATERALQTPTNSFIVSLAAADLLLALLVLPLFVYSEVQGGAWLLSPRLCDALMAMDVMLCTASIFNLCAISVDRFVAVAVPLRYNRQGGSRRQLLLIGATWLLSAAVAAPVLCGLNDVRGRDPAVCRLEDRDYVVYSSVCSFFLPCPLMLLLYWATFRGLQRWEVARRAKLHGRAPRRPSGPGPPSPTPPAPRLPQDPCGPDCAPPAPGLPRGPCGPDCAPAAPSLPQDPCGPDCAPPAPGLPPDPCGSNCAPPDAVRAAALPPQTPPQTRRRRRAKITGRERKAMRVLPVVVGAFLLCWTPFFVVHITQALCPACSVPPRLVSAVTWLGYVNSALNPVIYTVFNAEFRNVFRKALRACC

[7] = biological target: Sodium-dependent serotonin transporter (Homo sapiens, UniProt P31645); test: Displacement of [3H]imipramine from human SERT expressed in CHO cells by competition binding assay; format: cell-based; settings: read-out: Ki(app)
[8] = biological target: T3, Amine oxidase [flavin-containing] A (Rattus norvegicus, UniProt P21396); test: Displacement of [3H]Ro 41-1049 from MAO-A in rat cerebral cortex by competition binding assay; format: tissue-based; settings: for Ki: read-out: Ki(app)
T3 sequence (P21396 whole entry): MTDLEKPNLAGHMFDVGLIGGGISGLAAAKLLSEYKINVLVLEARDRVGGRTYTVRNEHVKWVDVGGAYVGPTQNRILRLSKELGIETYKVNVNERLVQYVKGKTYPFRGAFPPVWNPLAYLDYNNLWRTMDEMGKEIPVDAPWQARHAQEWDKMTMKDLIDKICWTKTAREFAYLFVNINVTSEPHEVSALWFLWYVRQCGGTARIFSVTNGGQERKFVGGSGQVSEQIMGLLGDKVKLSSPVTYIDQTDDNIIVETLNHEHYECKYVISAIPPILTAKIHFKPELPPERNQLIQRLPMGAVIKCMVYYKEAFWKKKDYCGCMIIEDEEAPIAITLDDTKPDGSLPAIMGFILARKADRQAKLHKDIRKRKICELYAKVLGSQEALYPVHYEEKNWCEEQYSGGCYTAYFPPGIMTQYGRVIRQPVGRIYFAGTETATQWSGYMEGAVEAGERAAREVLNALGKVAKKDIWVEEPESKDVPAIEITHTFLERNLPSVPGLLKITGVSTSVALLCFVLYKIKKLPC

[9] = biological target: Sodium-dependent dopamine transporter (Homo sapiens) (UniProt Q01959); test: Displacement of [3H]BTCP from human DAT at 1 uM by CEREP assay
[10] = biological target: T4, D(2) dopamine receptor (Homo sapiens, UniProt P14416); test: Displacement of [3H]7-OH-DPAT from human high affinity Dopamine D2S receptor by competition binding assay
[11] = biological target: D(3) dopamine receptor (Homo sapiens, UniProt P35462); test: Displacement of [3H]7-OH-DPAT from human dopamine D3 receptor at 1 uM by CEREP assay
[12] = biological target: T4, D(2) dopamine receptor; test: Displacement of [3H]methylspiperone from human low affinity Dopamine D2S receptor by competition binding assay
[13] = organism: Homo sapiens; test: Selectivity ratio of Ki(app) for human low affinity Dopamine D2S receptor to Ki(app) for human high affinity Dopamine D2S receptor
[14] = tested on: Rattus norvegicus; test: Increase in DOPAC level in Sprague-Dawley rat striatum at 33 umol/kg, sc by HPLC analysis relative to saline-treated control; format: functional
[15] = tested on: Rattus norvegicus; test: Decrease in 5-HIAA level in Sprague-Dawley rat striatum at 33 umol/kg, sc by HPLC analysis relative to saline-treated control; format: functional; parameters: scale not given: the % may be the effect or the level left
[16] = tested on: Rattus norvegicus; test: Reduction in spontaneous locomotor activity in Sprague-Dawley rat at 33 umol/kg, sc measured after 15 to 60 mins relative to saline-treated control; format: functional; parameters: scale not given: the % may be the effect or the level left
[17] = biological target: T5, Alpha-2A adrenergic receptor (Homo sapiens) (UniProt P08913); test: Displacement of [3H]UK 14.304 from human adrenergic alpha2A receptor at 1 uM
T5 sequence (whole entry): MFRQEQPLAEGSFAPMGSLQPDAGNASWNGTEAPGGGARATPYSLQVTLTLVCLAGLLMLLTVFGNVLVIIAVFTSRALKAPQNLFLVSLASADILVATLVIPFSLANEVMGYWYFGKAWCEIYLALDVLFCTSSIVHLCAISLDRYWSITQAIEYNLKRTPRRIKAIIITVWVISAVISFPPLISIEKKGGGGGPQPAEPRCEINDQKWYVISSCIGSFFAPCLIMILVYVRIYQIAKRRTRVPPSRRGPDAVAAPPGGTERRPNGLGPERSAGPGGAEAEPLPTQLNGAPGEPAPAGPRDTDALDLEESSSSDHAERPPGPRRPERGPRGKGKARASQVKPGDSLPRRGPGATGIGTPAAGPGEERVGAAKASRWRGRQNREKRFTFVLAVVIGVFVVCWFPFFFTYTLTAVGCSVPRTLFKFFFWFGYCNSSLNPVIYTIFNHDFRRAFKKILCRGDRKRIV

[18] = biological target: 5-hydroxytryptamine receptor 2A (Homo sapiens, UniProt P28223); test: Displacement of [3H]ketanserin from human 5-HT2A at 1 uM by CEREP assay
[19] = Binding affinity to dopamine receptor
[20] = Binding affinity to 5-HT receptor

Sodium-dependent dopamine transporter (Homo sapiens), sequence (Q01959 whole entry): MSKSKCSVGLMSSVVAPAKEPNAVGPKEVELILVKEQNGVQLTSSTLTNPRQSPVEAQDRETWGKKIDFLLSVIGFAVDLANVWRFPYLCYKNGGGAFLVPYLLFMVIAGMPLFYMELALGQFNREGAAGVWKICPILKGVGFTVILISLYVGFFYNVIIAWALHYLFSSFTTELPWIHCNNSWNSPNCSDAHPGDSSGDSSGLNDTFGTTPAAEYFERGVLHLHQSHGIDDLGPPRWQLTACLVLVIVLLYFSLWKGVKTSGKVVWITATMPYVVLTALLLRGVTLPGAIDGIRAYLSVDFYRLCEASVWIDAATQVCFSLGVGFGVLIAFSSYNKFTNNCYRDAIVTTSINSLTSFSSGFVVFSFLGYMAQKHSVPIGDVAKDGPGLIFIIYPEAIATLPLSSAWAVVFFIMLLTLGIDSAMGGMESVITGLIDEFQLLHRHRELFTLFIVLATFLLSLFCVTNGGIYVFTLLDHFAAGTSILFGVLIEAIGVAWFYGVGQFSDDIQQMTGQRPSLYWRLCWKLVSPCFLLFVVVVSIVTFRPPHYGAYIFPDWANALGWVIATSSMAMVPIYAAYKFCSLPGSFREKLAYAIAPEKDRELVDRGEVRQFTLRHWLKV
T4 sequence (P14416 whole entry): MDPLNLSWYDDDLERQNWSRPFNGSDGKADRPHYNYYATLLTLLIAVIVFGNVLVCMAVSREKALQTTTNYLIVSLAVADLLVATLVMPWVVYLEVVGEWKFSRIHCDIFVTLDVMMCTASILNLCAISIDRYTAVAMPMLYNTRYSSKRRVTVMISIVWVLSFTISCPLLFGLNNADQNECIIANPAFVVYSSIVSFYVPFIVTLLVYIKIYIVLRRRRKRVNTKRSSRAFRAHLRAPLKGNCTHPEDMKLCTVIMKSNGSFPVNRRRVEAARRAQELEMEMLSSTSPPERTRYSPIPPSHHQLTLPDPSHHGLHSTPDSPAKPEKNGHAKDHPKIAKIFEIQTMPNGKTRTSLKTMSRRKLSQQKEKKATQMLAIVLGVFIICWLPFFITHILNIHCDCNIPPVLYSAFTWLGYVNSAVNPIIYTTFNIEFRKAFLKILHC
Sodium-dependent serotonin transporter, sequence (P31645 whole entry): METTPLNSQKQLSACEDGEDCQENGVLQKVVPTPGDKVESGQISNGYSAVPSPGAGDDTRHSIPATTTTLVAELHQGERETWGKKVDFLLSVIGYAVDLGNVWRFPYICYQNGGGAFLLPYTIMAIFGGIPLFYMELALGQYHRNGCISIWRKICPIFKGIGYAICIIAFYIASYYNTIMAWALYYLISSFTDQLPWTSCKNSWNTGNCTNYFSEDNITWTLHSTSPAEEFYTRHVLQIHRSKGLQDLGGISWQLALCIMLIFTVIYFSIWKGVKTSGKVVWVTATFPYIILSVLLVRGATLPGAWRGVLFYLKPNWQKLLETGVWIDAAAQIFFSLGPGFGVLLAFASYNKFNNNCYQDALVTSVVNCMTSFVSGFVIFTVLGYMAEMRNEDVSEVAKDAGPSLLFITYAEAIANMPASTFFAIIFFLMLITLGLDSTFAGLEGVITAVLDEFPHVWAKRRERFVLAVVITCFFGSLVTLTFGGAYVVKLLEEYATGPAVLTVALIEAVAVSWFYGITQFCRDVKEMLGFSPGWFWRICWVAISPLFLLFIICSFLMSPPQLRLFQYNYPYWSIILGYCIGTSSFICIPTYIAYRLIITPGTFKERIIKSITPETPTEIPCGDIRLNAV
5-hydroxytryptamine receptor 2A, sequence (P28223 whole entry): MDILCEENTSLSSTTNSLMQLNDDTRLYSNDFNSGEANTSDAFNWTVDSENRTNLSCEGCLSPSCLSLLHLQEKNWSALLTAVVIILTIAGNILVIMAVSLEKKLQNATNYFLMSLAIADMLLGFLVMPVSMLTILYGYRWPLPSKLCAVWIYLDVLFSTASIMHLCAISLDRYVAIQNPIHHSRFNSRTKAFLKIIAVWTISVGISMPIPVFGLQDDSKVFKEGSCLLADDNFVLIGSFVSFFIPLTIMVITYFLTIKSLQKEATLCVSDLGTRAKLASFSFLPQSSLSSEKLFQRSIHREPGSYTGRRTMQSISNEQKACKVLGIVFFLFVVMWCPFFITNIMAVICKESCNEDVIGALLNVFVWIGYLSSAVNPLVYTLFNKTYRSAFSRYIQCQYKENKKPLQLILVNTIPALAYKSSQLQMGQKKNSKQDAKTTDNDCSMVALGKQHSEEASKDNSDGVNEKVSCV
D(3) dopamine receptor, sequence (P35462 whole entry): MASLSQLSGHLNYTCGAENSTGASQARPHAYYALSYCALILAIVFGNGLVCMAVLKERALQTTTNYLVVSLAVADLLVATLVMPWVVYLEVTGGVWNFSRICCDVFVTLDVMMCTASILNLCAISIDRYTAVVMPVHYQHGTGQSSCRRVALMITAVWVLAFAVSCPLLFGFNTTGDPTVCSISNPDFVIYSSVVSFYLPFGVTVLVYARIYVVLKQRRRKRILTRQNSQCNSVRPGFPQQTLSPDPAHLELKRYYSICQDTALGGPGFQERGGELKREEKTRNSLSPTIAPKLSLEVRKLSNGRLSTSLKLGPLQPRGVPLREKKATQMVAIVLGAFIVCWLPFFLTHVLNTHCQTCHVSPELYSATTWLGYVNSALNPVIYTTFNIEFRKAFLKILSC

## CCCN1CCC[C@@H](c2cccc(S(C)(=O)=O)c2)C1
[1]
  Activity: 100%
[2]
  ED50: 63 µmol/kg
[3]
  Activity: 260%
[4]
  Activity: 215%

## CCCN1CCC(c2coc3ccccc23)CC1
[5]
  inhibition: 49%
[1]
  Activity: 84%
[6]
  inhibition: 26%
[7]
  Ki: 827 nM
[3]
  Activity: 35%
[8]
  Ki: 92 nM
[9]
  inhibition: 34%
[10]
  Ki: 803 nM
[11]
  inhibition: 28%
[12]
  Ki: 2720 nM
[4]
  Activity: 75%

## CCCN1CCC(c2cccc3ccccc23)CC1
[1]
  Activity: 76%
[2]
  ED50: 103 µmol/kg
[7]
  Ki: 52 nM
[3]
  Activity: 218%
[8]
  Ki: 5420 nM
[10]
  Ki: 41 nM
[13]
  Ratio Ki(app): 2.7
[12]
  Ki: 112 nM
[4]
  Activity: 62%

## CCCN1CCC(c2noc3cc(F)ccc23)CC1
[5]
  inhibition: 17%
[6]
  inhibition: 37%
[2]
  ED50: 4 µmol/kg
[7]
  Ki: 29800 nM
[14]
  Activity: 350%
[8]
  Ki: 2230 nM
[9]
  inhibition: 15%
[10]
  Ki: 34 nM
[15]
  Activity: 111%
[13]
  Ratio Ki(app): 5.7
[11]
  inhibition: 83%
[16]
  Activity: 8.3%
[12]
  Ki: 194 nM

## CCCN1CCC(c2cn(C)c3cc(F)ccc23)CC1
[1]
  Activity: 95%
[2]
  ED50: 33 µmol/kg
[7]
  Ki: 45 nM
[3]
  Activity: 264%
[8]
  Ki: 4050 nM
[10]
  Ki: 157 nM
[13]
  Ratio Ki(app): 1.7
[12]
  Ki: 275 nM
[4]
  Activity: 27%

## CCCN1CCC(c2cn(C)c3ccc(F)cc23)CC1
[2]
  ED50: 3 µmol/kg
[7]
  Ki: 58 nM
[14]
  Activity: 275%
[8]
  Ki: 6860 nM
[10]
  Ki: 19 nM
[15]
  Activity: 87%
[13]
  Ratio Ki(app): 1.7
[16]
  Activity: 9%
[12]
  Ki: 32 nM

## CCCN1CCC(c2c[nH]c3cc(F)ccc23)CC1
[17]
  inhibition: 91%
[5]
  inhibition: 14%
[2]
  ED50: 4.1 µmol/kg
[7]
  Ki: 45 nM
[14]
  Activity: 299%
[8]
  Ki: 15800 nM
[9]
  inhibition: 1%
[10]
  Ki: 43 nM
[15]
  Activity: 93%
[13]
  Ratio Ki(app): 0.6
[18]
  inhibition: 100%
[16]
  Activity: 2.8%
[12]
  Ki: 27 nM

## CCCN1CCC(n2c(=O)n(C)c3cc(Cl)ccc32)CC1
[1]
  Activity: 113%
[2]
  ED50: 47 µmol/kg
[7]
  Ki: 2240 nM
[3]
  Activity: 253%
[8]
  IC50: > 580000 nM
[10]
  Ki: 5180 nM
[13]
  Ratio Ki(app): 0.4
[12]
  Ki: 2000 nM
[4]
  Activity: 27%

## CCCN1CCC(c2cccc(S(C)(=O)=O)c2)CC1 [PRIDOPIDINE]
[2]
  ED50: 81 µmol/kg

## CCCN1CCC(c2cc3ccccc3s2)CC1
[17]
  inhibition: 21%
[5]
  inhibition: 23%
[1]
  Activity: 76%
[7]
  Ki: 130 nM
[3]
  Activity: 28%
[8]
  Ki: 18 nM
[9]
  inhibition: 67%
[10]
  Ki: 574 nM
[13]
  Ratio Ki(app): 4
[18]
  inhibition: 95%
[12]
  Ki: 2320 nM
[4]
  Activity: 37%

## CCCN1CC=C(c2c[nH]c3ccc(Cl)cc23)CC1
[19]
  Activity: 80 nM
[20]
  Activity: 260 nM

## CCCN1CCC(N2C(=O)C(=O)c3ccccc32)CC1
[1]
  Activity: 95%
[2]
  ED50: inactive
[7]
  Ki: 23800 nM
[3]
  Activity: 101%
[8]
  IC50: > 580000 nM
[10]
  Ki: 12800 nM
[13]
  Ratio Ki(app): 0.9
[12]
  Ki: 12200 nM
[4]
  Activity: 118%

## CCCN1CCC(n2ccc3ccccc32)CC1
[1]
  Activity: 87%
[2]
  ED50: 126 µmol/kg
[7]
  Ki: 54 nM
[3]
  Activity: 227%
[8]
  Ki: 74900 nM
[10]
  Ki: 109 nM
[13]
  Ratio Ki(app): 10
[12]
  Ki: 1140 nM
[4]
  Activity: 92%

## CCCN1CCC(c2csc3ccccc23)CC1
[1]
  Activity: 79%
[2]
  ED50: 54 µmol/kg
[7]
  Ki: 6.5 nM
[3]
  Activity: 290%
[8]
  Ki: 14000 nM
[10]
  Ki: 26 nM
[13]
  Ratio Ki(app): 4.6
[12]
  Ki: 121 nM
[4]
  Activity: 48%

## CCCN1CCC(n2cnc3ccccc32)CC1
[1]
  Activity: 98%
[2]
  ED50: inactive
[7]
  Ki: 122 nM
[3]
  Activity: 111%
[8]
  IC50: > 580000 nM
[10]
  Ki: 10800 nM
[12]
  IC50: > 580000 nM
[4]
  Activity: 20%

## CCCN1CCC(c2ccc3ccccc3c2)CC1
[17]
  inhibition: 20%
[5]
  inhibition: 41%
[1]
  Activity: 70%
[7]
  Ki: 127 nM
[3]
  Activity: 32%
[8]
  Ki: 63 nM
[9]
  inhibition: 47%
[10]
  Ki: 1540 nM
[13]
  Ratio Ki(app): 1.9
[18]
  inhibition: 91%
[12]
  Ki: 2870 nM
[4]
  Activity: 22%

## CCCN1CCC(c2n[nH]c3ccccc23)CC1
[2]
  ED50: 55 µmol/kg
[7]
  Ki: 5640 nM
[14]
  Activity: 227%
[8]
  Ki: 7440 nM
[10]
  Ki: 187 nM
[15]
  Activity: 105%
[13]
  Ratio Ki(app): 5.7
[16]
  Activity: 7%
[12]
  Ki: 1070 nM
